Data reported in article PMC5855801, “Benzothiophenone Derivatives Targeting Mutant Forms of Estrogen Receptor-α in Hormone-Resistant Breast Cancers” (International Journal of Molecular Sciences, 2018).

Legend:
[1] = system: mutant ERα (L536Q, Y537S, Y537C, Y537N, D538G, Y537S/D538G, S463P/Y537N); assay: Luciferase reporter assay with mutant ERα in transfected MDA-MB-231 cells; type: cell-based, human; details: all seven mutant forms, two-fold dilution starting at 50 µM, read-out: IC50 against constitutively-active mutant forms of ERα (luciferase)
Protocol: Figure 5 Predicted MD simulations and experimental effect of VPC-16606 on mutant forms of ERα. […] (C) E2 responsiveness of the synthesized mutants. (D) pcDNA3.1 plasmid encoding either the full-length WT or mutant forms of ERα was transfected into MDA-MB-231 cells along with the 3X-ERE-TATA luciferase reporter plasmid. The cells were treated with a two-fold dilution of VPC-16606 starting at 50 µM. […] Data points are expressed as the percentage of luciferase activity relative to DMSO control. Data were fitted using the log10 of concentration of the inhibitors vs. the response with GraphPad Prism 6. Error bars indicate the standard error of the mean (SEM) for 3 independent experiments performed in triplicates.
To test this hypothesis, a site-directed mutagenesis study was initiated on WT-ERα. MDA-MB-231 cells that were transfected with plasmids encoding either WT or mutant ERα (L536Q, Y537S, Y537C, Y537N, D538G, Y537S/D538G, S463P/Y537N) along with an E2-responsive luciferase reporter plasmid and a constitutively-active Renilla reporter plasmid. The cells were treated with VPC-16606 with two-fold dilution starting at 50 µM. […] This is particularly important because they corroborate the idea that such clinically-relevant mutant forms of the receptor, which cause the receptor to be E2 independent, can be inhibited by targeting an alternative functional site on the receptor. […]

[2] = system: T47D cells; assay: Presto Blue cell viability assay, T47D; type: cell-based, human; details: 96 h, two-fold dilution starting at 50 µM
Protocol: (§1) The Presto Blue cell viability assay was used to assess the growth inhibitory potential of VPC-16606 on ERα^+ T47D, MCF7, ZR75-1 and TamR3 cells. They were treated for 96 h with a two-fold dilution range of the compound starting at 50 µM.
(§2) Cell viability was determined using the Presto Blue cell viability assay (Thermo Fisher Scientific, Waltham, MA, USA). Cells were seeded in clear bottom black-walled 96-well plates at a density of 5 × 10^3 cells/well in 100 μL of their respective media. On the following day, the cells were treated with test compounds (0.001–22.5 μM) in the presence of 1 nM E2 and incubated at 37 °C. After 96 h, 30 μL of Presto Blue reagent was added and incubated for 10 min at 37 °C. The fluorescent signal from viable cells was measured at 590 nm.

[3] = system: pS2, PR, Cyclin D1 and CDC2 proteins; assay: Western blotting in MCF7 cells; type: cell-based, human; details: MCF7, 24 h, effect at higher doses
Protocol: Serum-starved MCF7 and TamR3 cells were seeded onto a six-well plate at a density of 6 × 10^5 cells/well and treated the following day with VPC-16606 in the presence of 1 nM E2. One micromolar OHT was used as the positive control. After 24 h, cells were lysed in 1× radioimmunoprecipitation assay (RIPA) buffer. Twenty five micrograms of protein were loaded into SDS-PAGE gels and transferred to PVDF membranes. Membranes were incubated with pS2, PR Cyclin D1 and CDC2 antibodies or control α-actin antibody. Bound antibodies were detected using HRP-conjugated secondary antibodies. Chemiluminescence was detected with an Amersham ECL detection kit (GE Healthcare Life Sciences, Chicago, IL, USA), and bands were visualised using the G:BOX imager (Syngene, Cambridge, UK).

[4] = target: T1, ERα-LBD and SRC-3 (Homo sapiens, UniProt P03372); assay: Mammalian two-hybrid assay in MDA-MB-231 cells; type: cell-based; details: 1 nM E2, 24 h, read-out: IC50 for interaction between ERα-LBD and SRC-3 fusion proteins
T1 construct: generated by cloning the LBD of ERα into the pACT vector; expressed in transfected cells; host or cells: MDA-MB-231
T1 sequence (P03372 311-547 limits assumed): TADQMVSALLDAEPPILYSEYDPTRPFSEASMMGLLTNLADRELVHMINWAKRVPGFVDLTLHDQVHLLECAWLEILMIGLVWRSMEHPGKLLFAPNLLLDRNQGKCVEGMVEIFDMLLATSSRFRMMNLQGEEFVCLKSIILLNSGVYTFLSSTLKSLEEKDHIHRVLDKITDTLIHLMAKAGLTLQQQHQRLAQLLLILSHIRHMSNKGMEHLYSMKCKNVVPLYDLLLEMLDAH
Protocol: The direct effect of VPC-16606 on ERα-co-activator recruitment was assessed by the mammalian two-hybrid system (Promega, Madison, WI, USA). MDA-MB-231 cells were transfected with pACT-ERα-LBD, pBIND-Steroid receptor coactivator protein-3 (pBIND-SRC-3), a luciferase reporter plasmid containing a GAL4 recognition sequence and a constitutively-active Renilla reporter plasmid. The cells were treated with a […] dilution of VPC-16606 starting at 50 µM.
For the mammalian two hybrid assay, the CheckMate^TM Mammalian Two-Hybrid System (Promega, Madison, WI, USA) was used. The pACT-ERα-LBD construct was generated by cloning the LBD of ERα into the pACT vector to produce the ERα-LBD protein fused to the VP16 activation domain. The SRC-3 coactivator peptide (aa 614–698) containing LXXLL (L, leucine; X, any amino acid) motifs 1 and 2 was cloned into the pBIND vector to generate the pBIND-SRC-3 construct expressing the SRC-3 protein fused to the GAL4-DNA binding domain. Full-length human ERα (hERαWT) was encoded on a pcDNA3.1 expression plasmid. Point mutations in the LBD were generated with the QuikChange mutagenesis kit (Stratagene, San Diego, CA, USA) using the hERαWT template. […]
MDA-MB-231 cells were seeded on 96-well plates (2 × 10^4 cells/well) in 150 µL of medium. […] After 24 h, the cells were lysed and luminescence was measured as for the luciferase transcriptional assay described above.

[5] = system: TamR3 cells (tamoxifen-resistant MCF7-derived); assay: Presto Blue cell viability assay, TamR3; type: cell-based, human; details: TamR3, 96 h, two-fold dilution starting at 50 µM
Protocol: as §1, §2

What does the source list for CC(=O)N(/N=C1\Sc2c(C)cccc2C1=O)c1ccccc1Cl [VPC-16606]?
IC50 [1]: 500 to 1000 nM; Cell growth (Presto Blue viability) [2]: significantly reduce the growth; Expression of pS2, PR, Cyclin D1 and CDC2 proteins (Western blot) [3]: decreased expression; IC50 [4]: 800 nM; Cell growth (Presto Blue viability) [5]: significantly reduce the growth
